Experiments:
leukocyte infiltration = conditions: intraperitoneal AngII administration; cited from earlier work
AngII treated monocytes = conditions: cited from earlier work
CCR2b = target: T1, CCR2b (Rattus norvegicus, UniProt O55193); conditions: AngII and high salt diet, cited from earlier work
T1 construct: host or cells: whole animals (in vivo)
T1 sequence (O55193 1-373): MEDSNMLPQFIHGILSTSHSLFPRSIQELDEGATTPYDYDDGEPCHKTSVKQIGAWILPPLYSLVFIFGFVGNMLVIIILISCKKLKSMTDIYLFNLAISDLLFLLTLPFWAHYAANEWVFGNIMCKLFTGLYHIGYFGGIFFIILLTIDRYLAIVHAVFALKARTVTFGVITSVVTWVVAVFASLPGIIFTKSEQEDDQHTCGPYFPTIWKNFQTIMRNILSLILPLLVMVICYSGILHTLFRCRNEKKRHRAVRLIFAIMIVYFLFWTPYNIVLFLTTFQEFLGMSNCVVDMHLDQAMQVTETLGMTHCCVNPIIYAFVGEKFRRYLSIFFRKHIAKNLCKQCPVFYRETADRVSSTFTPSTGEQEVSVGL

AT1R [1] = conditions: apolipoprotein E-deficient mice, cited from earlier work
renal tissue = conditions: rats, 3 days of AngII treatment; cited from earlier work
[2] = system: glomerular endothelial cells; conditions: AngII treatment, rat glomerular endothelial cells; cited from earlier work
[3] = system: renal cells and monocytes; conditions: cited from earlier work
AT2R = target: T2, AT2R (Homo sapiens, UniProt P50052); test: eBRET control, cells expressing AT2R/Rluc8 and barr2/Venus with pcDNA3; format: cell-based; conditions: 10^−7M MCP1; HEK293FT cells expressing AT2R/Rluc8 and barr2/Venus with pcDNA3
T2 construct: expressed in transfected cells; host or cells: HEK293FT
T2 sequence (P50052 1-363): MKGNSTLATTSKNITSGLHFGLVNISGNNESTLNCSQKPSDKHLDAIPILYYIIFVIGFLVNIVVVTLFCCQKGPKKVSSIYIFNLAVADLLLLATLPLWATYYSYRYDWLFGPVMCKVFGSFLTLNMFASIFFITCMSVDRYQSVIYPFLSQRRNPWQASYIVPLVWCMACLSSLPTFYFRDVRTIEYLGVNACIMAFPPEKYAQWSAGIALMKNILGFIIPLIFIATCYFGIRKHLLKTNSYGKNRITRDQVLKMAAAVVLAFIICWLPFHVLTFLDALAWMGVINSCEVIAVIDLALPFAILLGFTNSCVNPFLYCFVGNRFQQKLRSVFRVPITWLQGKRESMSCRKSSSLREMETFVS
Experimental: (§1) HEK293FT cells were seeded in 6-well plates at a density of approximately 630,000 cells/well and maintained at 37° C., 5% CO2 in Complete Media (DMEM containing 0.3 mg/ml glutamine, 100 IU/ml penicillin and 100 μg/ml streptomycin (Gibco)) supplemented with 10% fetal calf serum (FCS; Gibco). Transient transfections were carried out 24 h after seeding using GeneJuice (Novagen) according to manufacturer instructions. 24 h post-transfection, cells were washed with PBS, detached using 0.05% trypsin/0.53 mM EDTA, resuspended in HEPES-buffered phenol red free Complete Media containing 5% FCS and added to a poly-L-lysine-coated white 96-well microplate (Nunc). 48 h post-transfection, eBRET assays were carried out following pre-incubation of cells with EnduRen™ (Promega) at a final concentration of 30 μM, at 37° C., 5% CO2 for 2 h. BRET measurements were taken at 37° C. using the Victor Light plate reader with Wallac 1420 software (Perkin-Elmer). Filtered light emissions were sequentially measured for 2 s in each of the ‘donor wavelength window’ (400-475 nm) and ‘acceptor wavelength window’ (520-540 nm).
The BRET signal observed between interacting proteins is normalized by subtracting the background BRET ratio. […] In the following examples, the second calculation will be used and the signal is described as the ‘ligand-induced BRET ratio’.

AT1R [4] = target: T3, AT1R (Homo sapiens, UniProt P30556); test: eBRET control, cells expressing AT1R/Rluc8 and barr2/Venus with pcDNA3; format: cell-based; conditions: 10^−7M MCP1; HEK293FT cells expressing AT1R/Rluc8 and barr2/Venus with pcDNA3
T3 construct: expressed in transfected cells; host or cells: HEK293FT
T3 sequence (P30556 1-359): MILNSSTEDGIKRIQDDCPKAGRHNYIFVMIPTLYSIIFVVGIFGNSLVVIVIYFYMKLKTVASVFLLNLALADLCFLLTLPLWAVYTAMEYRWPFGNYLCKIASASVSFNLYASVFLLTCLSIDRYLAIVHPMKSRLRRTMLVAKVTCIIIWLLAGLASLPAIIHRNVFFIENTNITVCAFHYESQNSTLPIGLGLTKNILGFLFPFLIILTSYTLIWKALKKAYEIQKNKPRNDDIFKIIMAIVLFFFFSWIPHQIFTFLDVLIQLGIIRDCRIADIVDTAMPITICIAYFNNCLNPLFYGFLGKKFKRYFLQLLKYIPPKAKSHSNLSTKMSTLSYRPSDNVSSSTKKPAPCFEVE
Experimental: as §1
The BRET signal observed between interacting proteins is normalized by subtracting the background BRET ratio. […]
In parallel, eBRET signals were measured from cells transiently expressing AT1R/Rluc8 and barr2/Venus with pcDNA3 following treatment with 10^−7M monocyte chemotactic protein-1 (MCP1).

Molecule: CCCCc1nc(Cl)c(CO)n1Cc1ccc(-c2ccccc2-c2nn[nH]n2)cc1 [Losartan]
- Leukocyte infiltration (leukocyte infiltration): inhibited
- AngII-mediated upregulation of MIP-1 and interleukin-8 chemokines (AngII treated monocytes): inhibited

Molecule: O=C1Nc2ccccc2C2(CCN(CCc3ccc(C(F)(F)F)cc3)CC2)O1 [RS102895]
- BP (CCR2b; with versus without CCR2b antagonist): comparable
- renal protection in hypertension (CCR2b): protects the kidney in hypertension by reducing the inflammatory response

Molecule: C[C@H](N[C@@H](CCc1ccccc1)C(=O)O)C(=O)N1[C@H](C(=O)O)C[C@@H]2CCC[C@@H]21 [Ramiprilat]
- AngII-induced upregulation of MIP-1 (AngII treated monocytes): suppressed

Molecule: CCCCC1=NC2(CCCC2)C(=O)N1Cc1ccc(-c2ccccc2-c2nnn[nH]2)cc1 [irbesartan]
- lesion size (AT1R [1]; after 12 weeks): reduced
- levels of MCP-1 and MIP-1α mRNA expression (AT1R [1]): significantly lower

Molecule: angiotensin II (DRVYIHPF; Angiotensin-2; UniProt P01019 25-32, looked up) [AngII]
- renal expression of TNFα and MCP-1 (renal tissue): increased
- CC and CXC chemokine levels (leukocyte infiltration): increase
- mRNA and protein expression of the chemokine RANTES [2]: increase

Molecule: angiotensin III (RVYIHPF; Angiotensin-3; UniProt P01019 26-32, looked up) [AngIII]
- MCP-1 mRNA and protein expression ([3]; AngIII treatment of renal cells and monocytes): increase
- transcription factor NF-κB ([3]; AngIII treatment): activated

Molecule: monocyte chemotactic protein-1 [MCP1]
- ligand-induced BRET ratio (AT2R): did not result in an increase in ligand-induced BRET ratio
- ligand-induced BRET ratio (AT1R [4]): did not result in an increase in ligand-induced BRET ratio

— US20120100130A1, “Novel Receptor Hetero-Dimers/-Oligomers” (DIMERIX BIOSCIENCE PTY LTD., priority 2009, published 2012)
